Patent publication US7312248B2, “Control of parasites in animals by the use of novel trifluoromethanesulfonanilide oxime ether derivatives” (Schering-Plough Animal Health Corporation, priority 2004, dated 2007)
Where two headings read alike, the source gives them in different places.

How the values were obtained:
Type in all cases: in vivo
[1] = test system: cat flea (Ctenocephalides felis); assay: whole plant or invertebrate; conditions: Ctenocephalides felis
How it was run: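 Single-dose screen at 1.26 μg/cm^2: acetone solution dried for 24 h on a Coatasil-treated 159 mm^2 flask base, then 15 adult cat fleas aged 3-7 days per flask, four or more replicates, acetone control. Percent dead, meaning not moving or unable to right themselves, recorded after 8, 24 and/or 48 h at 25 °C and 75% RH.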

[2] = test system: cat flea (Ctenocephalides felis); assay: Ctenocephalides felis adulticide assay: dose response (LC50)
How it was run: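 Groups of 15 adult cat fleas, 3–7 days post-emergence, were exposed for 24 h at 25° C and 75% humidity to glass flask bases coated with six serial doses in acetone and dried for 24 h. Mortality was scored at 8 and 24 h, and LC50 was the surface-treatment concentration killing 50%.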

[3] = test system: Brown Dog Tick (Rhipicephalus sanguineus); assay: Rapid screening protocol for topical application on brown dog ticks; conditions: 48 h; Laboratory 2 F data
Experimental: d) Rapid Screening Protocol for Topical Application on Brown Dog Ticks (Rhipicephalus sanguineus)
The aim of the test was to determine the presence of significant acaricidal activity in sample compounds or formulations when applied topically on brown dog ticks. A tick was defined as dead if it gave no apparent response when touched lightly and observed for 1 minute. […] Both permethrin and fipronil were employed as reference compounds. The insect species tested was the Brown Dog Tick (Rhipicephalus sanguineus). Mixed sex adult ticks were used for tests. The strain used was cultured by von Berky Veterinary Services, Woody Point, QLD, AU and supplied as unfed adult ticks (mixed sex). Ticks were maintained in controlled conditions (temp. 18°+2° C., humidity 75±5% RH).
Temperature was maintained at 25±1° C. and the humidity was ambient. […] Ticks were each treated on the abdomen with 1 μL of a single dose level of test sample in acetone; ten ticks were treated with solvent only (acetone) in each test. Tests were replicated 4 times (total of 40 ticks treated). […]

[4] = test system: Brown Dog Tick (Rhipicephalus sanguineus); assay: Dose response protocol for topical application on brown dog ticks (LD50); conditions: 24 h mortality
Experimental: e) Dose response protocol for topical application on brown dog ticks (Rhipicephalus sanguineus): The test determines the level of insecticidal activity of sample compounds or formulations when applied topically on brown dog ticks. Sample compounds were stored prior to use in a freezer (−5±1° C.), unless otherwise specified.
• Mortality: A tick is defined as dead after it gives no apparent response when touched lightly or gently breathed upon, while observed for 30 seconds. • LD50 (Lethal Dose 50): The dose of a topically applied treatment at which 50% of the dog ticks are killed. • Reference compound: To assess an experimental compound for significant acaricidal activity a single dose level is chosen, which is based upon known results from previous experiments using a commercially available active i.e., a reference compound. The reference compound selected is one in common use, and one that has a similar mode of action against the Brown Dog Tick (i.e., the test species). • Recovery container: A recovery container consists of a 500 ml round plastic container measuring 115 mm diameter and 70 mm height, with a tight fitting lid that has 10 small (˜1 mm) holes inserted for air exchange. A 90 mm diameter piece of filter paper was placed on the bottom of the container and moistened with 1 mL of de-stilled water.
Adult, mixed sex, Brown Dog Ticks (Rhipicephalus sanguineus) were reared as follows: (i) cultured, (ii) transferred unfed, to a testing laboratory, and (iii) then maintained under controlled conditions (i.e., temp. 18°±2° C., humidity 75±5% RH). The ticks used were selected for vigor prior to testing, i.e., capable of actively walking and responsive to being touched or gently breathed upon.
During the testing, the temperature was maintained at 25±1° C., and the humidity was ambient. Seven dose levels (concentrations) of sample compound, in the form of serial dilutions in acetone, were derived from a pilot study and covered a range that produced very low to very high mortality. Groups of ten ticks were treated topically (on the abdomen) with 1 μL of a single dose level of the sample compound. Each test was replicated four times, i.e., employing a total of 40 ticks per dose level of each sample compound. As a control, ten ticks were treated with solvent only (acetone) for each test. Following the treatment, the ticks were held in recovery containers maintained under appropriate rearing conditions for 24 hours. Mortality resulting from the treatments was recorded at 24 hours. […] Press, London (1971).]

[5] = test system: Haemonchus contortus; assay: Haemonchus contortus larvacidal (larval development) assay; conditions: 144 h, read-out: Haemonchus contortus LD99
How it was run: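 Nematode eggs placed on agar containing compound (12 two-fold dilutions, final 0.024–50 μg/ml) and left 6 days to develop to L3. LD99 is the lowest concentration inhibiting development of 99% of larvae, derived from well titre (2^n−1) and top concentration.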

[6] = 8 h, read-out: C. felis Mortality (%) 8 h, 8 h, Laboratory 2 B data
[7] = 24 h, read-out: C. felis Mortality (%) 24 h, 24 h, Laboratory 2 B data
[8] = 24 h, read-out: C. felis Mortality (%) 24 h, 24 h, Laboratory 1 A data
[9] = 48 h, read-out: C. felis Mortality (%) 48 h, 48 h, Laboratory 2 B data

SMILES	mortality at 1.26 µg/cm2, 1.26 µg/cm2 [1, 6] [%]	mortality at 1.26 µg/cm2, 1.26 µg/cm2 [1, 7] [%]	C. felis LC50 ([2]; Laboratory 2 D data)	R. sanguineus Mortality (%) 48 h [3] [%]	R. sanguineus LD50 [4] [μg/tick]	mortality at 1.26 µg/cm2, 1.26 µg/cm2 [1, 8] [%]	C. felis LC50 ([2]; Laboratory 1 C data) [μg/cm^2]	IC99 [5] [µg/mL]	mortality at 1.26 µg/cm2, 1.26 µg/cm2 [1, 9] [%]
CC(C)ON=C(c1cc(Cl)ccc1NS(=O)(=O)C(F)(F)F)C1CCCCC1 (racemic) [Compound 210, N-[4-chloro-2-(cyclohexylisopropoxyiminomethyl)phenyl]trifluoromethanesulfonamide]	66	100	0.1^D μg/cm^2	100	2.7				
CCON=C(c1ccccc1)c1cc(Cl)ccc1NS(=O)(=O)C(F)(F)F (single isomer, unassigned) [Compound 177, N-[4-chloro-2-(ethoxyiminophenylmethyl)phenyl]trifluoromethanesulfonamide]					17.6	100	0.3		
CC/C(=N\OCC1CCCCC1)c1cc(Cl)ccc1NS(=O)(=O)C(F)(F)F [Compound 104, N-[4-chloro-2-(1-cyclohexylmethoxyiminopropyl)phenyl]trifluoromethanesulfonamide]			1.6 μg/cm^2	100		100	0.3	10	
CC/C(=N\Oc1ccc(Cl)cc1)c1cc(Cl)ccc1NS(=O)(=O)C(F)(F)F [Compound 128, N-{4-chloro-2-[1-(4-chlorophenoxyimino)propyl]phenyl}trifluoromethanesulfonamide]			0.05 μg/cm^2	85		100	0.08	0.4	
C/C(=N\Oc1ccc(F)cc1)c1cc(Cl)ccc1NS(=O)(=O)C(F)(F)F [Compound 129, N-{4-chloro-2-[1-(4-fluorophenoxyimino)ethyl]phenyl}trifluoromethanesulfonamide]			0.02 μg/cm^2		1.3	100	0.05	1.9	
C/C(=N\Oc1cccc(Cl)c1)c1cc(Cl)ccc1NS(=O)(=O)C(F)(F)F [Compound 132]				80		100	0.2	1.6	
CC/C(=N\OC1CCCC1)c1cc(Cl)ccc1NS(=O)(=O)C(F)(F)F [Compound 155]			0.02 μg/cm^2	92	1.5	100	0.2		
C=CCO/N=C(\CC)c1cc(Cl)ccc1NS(=O)(=O)C(F)(F)F [Compound 156, N-[2-(1-allyloxyiminopropyl)-4-chlorophenyl]trifluoromethanesulfonamide]			0.02 μg/cm^2	95	0.6	100	0.4		
CC/C(=N\OC1CCCCC1)c1cc(Cl)ccc1NS(=O)(=O)C(F)(F)F [Compound 157]					5.7	100	0.3		
CCC(CC)O/N=C(\C)c1cc(Cl)ccc1NS(=O)(=O)C(F)(F)F [Compound 174]					2.9	100	0.1		
C/C(=N\OC1C=CCCC1)c1cc(Cl)ccc1NS(=O)(=O)C(F)(F)F (stereo not shown) [Compound 175]					4.0	100	0.1		
COCCO/N=C(\C)c1cc(Cl)ccc1NS(=O)(=O)C(F)(F)F [Compound 185, N-{4-chloro-2-[1-(2-methoxyethoxyimino)ethyl]phenyl}trifluoromethanesulfonamide]	100	100	0.01 μg/cm^2	100	0.7		0.2		
C/C(=N\OCC(F)(F)F)c1cc(Cl)ccc1NS(=O)(=O)C(F)(F)F [Compound 186]	100	100	0.006 μg/cm^2	100	0.9		0.1		
C/C(=N\OC(C)C)c1ccc(C(F)(F)F)cc1NS(=O)(=O)C(F)(F)F [Compound 235]		100	0.2^D μg/cm^2		2.3				100
C=CCO/N=C(\C)c1ccc(C(F)(F)F)cc1NS(=O)(=O)C(F)(F)F [Compound 241, N-[2-(1-allyloxyiminoethyl)-5-trifluoromethylphenyl]trifluoromethanesulfonamide]		100	0.1^D μg/cm^2		1.9				100
CCC(C)O/N=C(\C)c1cc(Cl)ccc1NS(=O)(=O)C(F)(F)F (stereo not shown) [Compound 242]		100	0.1^D μg/cm^2		3.1				100
CC/C(=N\OC(C)CC)c1cc(Cl)ccc1NS(=O)(=O)C(F)(F)F (stereo not shown) [Compound 243]		100	0.1^D μg/cm^2		3.8				100
CCCCO/N=C(\C)c1cc(Cl)ccc1NS(=O)(=O)C(F)(F)F [Compound 244]		100	0.07^D μg/cm^2		3.0				100
CCCCO/N=C(\CC)c1cc(Cl)ccc1NS(=O)(=O)C(F)(F)F [Compound 245]		100	0.09^D μg/cm^2		3.9				100
CC/C(=N\OCCC(C)C)c1cc(Cl)ccc1NS(=O)(=O)C(F)(F)F [Compound 247]		100	0.1^D μg/cm^2		4.6				100
CC(C)=CCO/N=C(\C)c1cc(Cl)ccc1NS(=O)(=O)C(F)(F)F [Compound 249]		100	1.3^D μg/cm^2		3.3				100
C/C(=N\OC(C)C1CC1)c1cc(Cl)ccc1NS(=O)(=O)C(F)(F)F (stereo not shown) [Compound 253]		100	1.2^D μg/cm^2		3.4				100
